This is an account of results in BindingDB's records for patent US20250136570 (Tango Therapeutics, 2025).

The target of this experiment is Histone deacetylase 1 (Homo sapiens, UniProt Q13547). The experiment is described as follows: HDAC1 & HDAC3 Inhibition Assay. As for the experimental part:
IC50 determination for HDAC1 and HDAC3-Prior to adding reagents, 50 nL/well of compound were added to Proxiplates using an Echo dispenser instrument (Beckman Coulter, CA, US). After addition of compound, 2.5 μL/well of 2× enzyme solution was added and the enzyme was pre-incubated with compound for 3 hours at room temp. (˜22° C.). After the pre-incubation period, the enzyme reaction was initiated by adding 2.5 μL/well of 2× Fluor de Lys substrate solution. The assay reaction was stopped after one hour by adding 5 μl/well of a 0.66× Developer solution containing TSA (3.2 μM). The final product of the enzyme reaction was read using a Spectramax plate reader instrument (Molecular Devices, CA, US) using a fluorescent readout (Ex 360 nm/Em 460 nm). The final enzyme concentrations in the assay buffer for HDAC1 and 3 were 6 and 1.2 nM, respectively. The final Fluor de Lys substrate concentration in the assay buffer was 16 μM for all HDAC enzymes. IC50 values were determined using the following equation:EfreeEo=100(1-11+(1IC50)n)(1)Where Efree and Eo are the free and total amount of HDAC enzyme in the reaction mixture, n is the hill coefficient, I is the free inhibitor concentration, and IC50 is the measure of the potency equivalent to the inhibitor concentration that leads to a 50% occupancy of the total enzyme. Each data was generated in duplicate.

Histone deacetylase 1, sequence (Q13547 whole entry): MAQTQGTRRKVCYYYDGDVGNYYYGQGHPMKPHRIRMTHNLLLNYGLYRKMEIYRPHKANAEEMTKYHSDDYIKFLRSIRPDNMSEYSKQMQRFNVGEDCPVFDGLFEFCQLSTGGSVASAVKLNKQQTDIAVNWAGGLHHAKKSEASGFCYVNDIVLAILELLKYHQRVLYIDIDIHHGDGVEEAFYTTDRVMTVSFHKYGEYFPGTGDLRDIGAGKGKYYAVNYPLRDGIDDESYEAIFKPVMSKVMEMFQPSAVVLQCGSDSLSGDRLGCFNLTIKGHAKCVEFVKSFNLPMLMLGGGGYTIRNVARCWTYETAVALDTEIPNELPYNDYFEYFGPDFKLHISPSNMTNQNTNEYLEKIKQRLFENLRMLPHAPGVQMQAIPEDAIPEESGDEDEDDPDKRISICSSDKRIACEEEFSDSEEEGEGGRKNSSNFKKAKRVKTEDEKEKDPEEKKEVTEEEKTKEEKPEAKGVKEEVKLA

Usually IC50 stands for the concentration at which inhibition is half-maximal. A low value points to greater potency. Take `Nc1ccc(-c2ccc(F)cc2)cc1NC(=O)c1ccc(S2(=O)=NCCC2)nc1` (stereo unspecified) [US20250136570, Compound 178]: the IC50 is less than 100 nM.

The compound `Nc1ccc(-c2cccs2)cc1NC(=O)c1ccc(S2(=O)=NCCC2)cc1` (stereo unspecified) [US20250136570, Compound 126] registered an IC50 of less than 100 nM.

As for `Nc1ccc(-c2ccc(F)s2)cc1NC(=O)c1ccc(S2(=O)=NCCC2)cc1` (stereo unspecified) [US20250136570, Compound 160], the IC50 was less than 100 nM.

`Nc1ccc(-c2ccc(F)cc2)cc1NC(=O)c1ccc(S2(=O)=NCCCC2)cc1` (stereo unspecified) [US20250136570, Compound 243] displayed a half-maximal inhibitory concentration (IC50) of less than 100 nM.

`Nc1ccc(-c2ccc(F)cc2)cc1NC(=O)c1cc2cc(S3(=O)=NCCC3)ccc2s1` (stereo unspecified) [US20250136570, Compound 204] showed an IC50 of less than 100 nM.

Turning to `N=S(=O)(c1ccc(C(=O)Nc2cc(-c3ccc(F)cc3)ccc2N)cc1)c1ccc(Cl)cn1` (stereo unspecified) [US20250136570, Compound 213], the half-maximal inhibitory concentration (IC50) was less than 100 nM.
